Measured values taken from patent US8188078B2 (Sanofi-Aventis, priority 2007, dated 2012).

What was measured:
MET = biological target: T1, MET (Homo sapiens, UniProt P08581); experiment: Test C: inhibition of the autophosphorylation of MET, ELISA technique (pppY1230, 1234, 1235), MKN45 cells; assay type: cell-based
T1 construct: endogenous in cells; host or cells: MKN45 cells
Procedure, shortened: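 MKN45 cells adhered 24 h, then treated 1 h with compound at 6 concentrations in duplicate, final range 10000 to 30 nM. Lysates assayed by phospho-MET (pY1230/1234/1235) sandwich ELISA with HRP chromogen read at 450 nm.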

T1 sequence (P08581 25-1390): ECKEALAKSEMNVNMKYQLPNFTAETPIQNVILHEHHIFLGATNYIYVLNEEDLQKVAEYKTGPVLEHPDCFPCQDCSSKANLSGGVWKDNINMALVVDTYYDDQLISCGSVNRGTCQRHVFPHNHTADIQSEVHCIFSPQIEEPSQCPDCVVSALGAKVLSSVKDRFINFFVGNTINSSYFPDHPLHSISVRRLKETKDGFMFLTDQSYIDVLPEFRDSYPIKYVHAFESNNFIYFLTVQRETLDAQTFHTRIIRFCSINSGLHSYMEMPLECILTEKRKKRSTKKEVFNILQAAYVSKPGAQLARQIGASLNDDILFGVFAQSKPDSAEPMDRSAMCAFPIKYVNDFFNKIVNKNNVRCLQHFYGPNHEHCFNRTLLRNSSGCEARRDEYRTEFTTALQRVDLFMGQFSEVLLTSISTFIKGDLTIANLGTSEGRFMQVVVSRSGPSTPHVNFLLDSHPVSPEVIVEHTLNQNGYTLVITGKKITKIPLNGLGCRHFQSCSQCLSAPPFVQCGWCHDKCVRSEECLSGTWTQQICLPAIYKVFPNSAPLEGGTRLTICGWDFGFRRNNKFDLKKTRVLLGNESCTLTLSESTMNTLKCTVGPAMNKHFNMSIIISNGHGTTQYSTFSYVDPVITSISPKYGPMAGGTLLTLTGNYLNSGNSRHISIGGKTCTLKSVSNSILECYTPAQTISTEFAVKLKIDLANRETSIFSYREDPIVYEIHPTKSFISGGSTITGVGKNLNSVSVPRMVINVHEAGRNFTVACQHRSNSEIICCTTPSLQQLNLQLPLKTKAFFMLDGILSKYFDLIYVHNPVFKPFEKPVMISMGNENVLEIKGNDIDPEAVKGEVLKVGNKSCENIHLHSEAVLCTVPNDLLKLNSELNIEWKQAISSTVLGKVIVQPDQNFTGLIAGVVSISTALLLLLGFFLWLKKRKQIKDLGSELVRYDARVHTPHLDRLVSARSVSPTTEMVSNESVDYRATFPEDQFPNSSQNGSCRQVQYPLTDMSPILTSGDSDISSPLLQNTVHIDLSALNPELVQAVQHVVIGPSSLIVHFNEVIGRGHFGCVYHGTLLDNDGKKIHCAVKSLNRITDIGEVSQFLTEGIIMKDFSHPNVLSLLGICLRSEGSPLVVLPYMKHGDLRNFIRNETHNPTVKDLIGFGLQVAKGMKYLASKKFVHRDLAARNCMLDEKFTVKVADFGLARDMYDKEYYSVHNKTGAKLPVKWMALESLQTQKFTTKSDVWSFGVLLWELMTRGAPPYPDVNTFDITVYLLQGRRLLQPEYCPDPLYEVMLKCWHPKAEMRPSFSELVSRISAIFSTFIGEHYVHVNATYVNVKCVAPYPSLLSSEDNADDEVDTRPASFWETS

Structure (SMILES)	IC50 (MET)	melting point
CC(Oc1cc2sc(NC(=O)CN3CCNCC3)nc2cc1F)c1c(Cl)ccc(F)c1Cl (stereo not shown) [Example 69, N-{6-[1-(2,6-dichloro-3-fluorophenyl)ethoxy]-5-fluoro-1,3-benzothiazol-2-yl}-2-(piperazin-1-yl)acetamide]	< 500 nM	188 to 190 °C
CCN1CCN(CCNC(=O)Nc2nc3cc(F)c(OC(C)c4c(Cl)ccc(F)c4Cl)cc3s2)CC1 (stereo not shown) [Example 100, 1-{6-[1-(2,6-dichloro-3-fluorophenyl)ethoxy]-5-fluoro-1,3-benzothiazol-2-yl}-3-[2-(4-ethylpiperazin-1-yl)ethyl]urea]	< 500 nM	150 to 152 °C
CC(Oc1cc2sc(NC(=O)NCCOCC3CC3)nc2cc1F)c1c(Cl)ccc(F)c1Cl (stereo not shown) [Example 103, 1-[2-(cyclopropylmethoxy)ethyl]-3-{6-[1-(2,6-dichloro-3-fluorophenyl)ethoxy]-5-fluoro-1,3-benzothiazol-2-yl}urea]	500 to 10000 nM	178 to 184 °C
COCCCNC(=O)Nc1nc2cc(F)c(OC(C)c3c(Cl)ccc(F)c3Cl)cc2s1 (stereo not shown) [Example 104, 1-{6-[1-(2,6-dichloro-3-fluorophenyl)ethoxy]-5-fluoro-1,3-benzothiazol-2-yl}-3-(3-methoxypropyl)urea]	< 500 nM	175 °C
CC(Oc1cc2sc(NC(=O)NCCCO)nc2cc1F)c1c(Cl)ccc(F)c1Cl (stereo not shown) [Example 105, 1-{6-[1-(2,6-dichloro-3-fluorophenyl)ethoxy]-5-fluoro-1,3-benzothiazol-2-yl}-3-(3-hydroxypropyl)urea]	< 500 nM	158 °C
CC(Oc1cc2sc(NC(=O)NCCN3CCOCC3)nc2cc1Cl)c1c(Cl)ccc(F)c1Cl (stereo not shown) [Example 106, 1-{5-chloro-6-[1-(2,6-dichloro-3-fluorophenyl)ethoxy]-1,3-benzothiazol-2-yl}-3-[2-(morpholin-4-yl)ethyl]urea]	500 to 10000 nM	196 to 198 °C
CC(Oc1ccc2nc(NC(=O)NCCN3CCN(C)CC3)sc2c1)c1c(F)ccc(Cl)c1Cl (stereo not shown) [Example 108, 1-{6-[1-(2,3-dichloro-6-fluorophenyl)ethoxy]-1,3-benzothiazol-2-yl}-3-[2-(4-methylpiperazin-1-yl)ethyl]urea]	< 500 nM	105 to 110 °C
CC(Oc1ccc2nc(NC(=O)NCCC3CCCN3C)sc2c1)c1c(F)ccc(Cl)c1Cl (stereo not shown) [Example 110, 1-{6-[1-(2,3-dichloro-6-fluorophenyl)ethoxy]-1,3-benzothiazol-2-yl}-3-[2-(1-methylpyrrolidin-2-yl)ethyl]urea]	< 500 nM	102 to 105 °C
CC(Oc1cc2sc(NC(=O)NCCN3CCOCC3)nc2cc1F)c1c(F)ccc(Cl)c1Cl (stereo not shown) [Example 111, 1-{6-[1-(2,3-dichloro-6-fluorophenyl)ethoxy]-5-fluoro-1,3-benzothiazol-2-yl}-3-[2-(morpholin-4-yl)ethyl]urea]	500 to 10000 nM	220 to 225 °C
CC(Oc1cc2sc(NC(=O)NCCCN3CCCC3=O)nc2cc1F)c1c(F)ccc(Cl)c1Cl (stereo not shown) [Example 114, 1-{6-[1-(2,3-dichloro-6-fluorophenyl)ethoxy]-5-fluoro-1,3-benzothiazol-2-yl}-3-[3-(2-oxopyrrolidin-1-yl)propyl]urea]	< 500 nM	195 °C
CC(Oc1cc2sc(NC(=O)NCCN3CCN(C)CC3)nc2cc1F)c1c(F)ccc(Cl)c1Cl (stereo not shown) [Example 115, 1-{6-[1-(2,3-dichloro-6-fluorophenyl)ethoxy]-5-fluoro-1,3-benzothiazol-2-yl}-3-[2-(4-methylpiperazin-1-yl)ethyl]urea]	< 500 nM	120 °C
CC(Oc1cc2sc(NC(=O)NCCN3CCCC3)nc2cc1F)c1c(F)ccc(Cl)c1Cl (stereo not shown) [Example 118, 1-{6-[1-(2,3-dichloro-6-fluorophenyl)ethoxy]-5-fluoro-1,3-benzothiazol-2-yl}-3-[2-(pyrrolidin-1-yl)ethyl]urea]	< 500 nM	191 °C
CC(Oc1ccc2nc(NC(=O)NCCN3CCCC3)sc2c1)c1c(F)ccc(Cl)c1Cl (stereo not shown) [Example 120, 1-{6-[1-(2,3-dichloro-6-fluorophenyl)ethoxy]-1,3-benzothiazol-2-yl}-3-[2-(pyrrolidin-1-yl)ethyl]urea]	< 500 nM	110 to 115 °C
Cc1ccc(F)c(C(C)Oc2ccc3nc(NC(=O)NCCN4CCOCC4)sc3c2)c1F (stereo not shown) [Example 123, 1-{6-[1-(2,6-difluoro-3-methylphenyl)ethoxy]-1,3-benzothiazol-2-yl}-3-[2-(morpholin-4-yl)ethyl]urea]	500 to 10000 nM	92 to 95 °C
CC(Oc1ccc2nc(NC(=O)NCCN3CCOCC3)sc2c1)c1c(Cl)ccc(Cl)c1Cl (stereo not shown) [Example 124, 1-[2-(morpholin-4-yl)ethyl]-3-{6-[1-(2,3,6-trichlorophenyl)ethoxy]-1,3-benzothiazol-2-yl}urea]	< 500 nM	189 °C
CC(Oc1ccc2nc(NC(=O)NCCN3CCCC3)sc2c1)c1c(Cl)ccc(Cl)c1Cl (stereo not shown) [Example 125, 1-[2-(pyrrolidin-1-yl)ethyl]-3-{6-[1-(2,3,6-trichlorophenyl)ethoxy]-1,3-benzothiazol-2-yl}urea]	500 to 10000 nM	189 °C
CC(Oc1cc2sc(NC(=O)NCCN3CCCC3)nc2cc1F)c1c(Cl)ccc(Cl)c1Cl (stereo not shown) [Example 126, 1-{5-fluoro-6-[1-(2,3,6-trichlorophenyl)ethoxy]-1,3-benzothiazol-2-yl}-3-[2-(pyrrolidin-1-yl)ethyl]urea]	500 to 10000 nM	103 to 107 °C
CNCCCNC(=O)Nc1nc2cc(F)c(OC(C)c3c(Cl)ccc(F)c3Cl)cc2s1 (stereo not shown) [Example 127, 1-{6-[1-(2,6-dichloro-3-fluorophenyl)ethoxy]-5-fluoro-1,3-benzothiazol-2-yl}-3-[3-(methylamino)propyl]urea]	< 500 nM	183 °C
CC(Oc1cc2sc(NC(=O)NCCCN)nc2cc1F)c1c(Cl)ccc(F)c1Cl (stereo not shown) [Example 128, 1-(3-aminopropyl)-3-{6-[1-(2,6-dichloro-3-fluorophenyl)ethoxy]-5-fluoro-1,3-benzothiazol-2-yl}urea]	< 500 nM	163 °C
CC(Oc1cc2sc(NC(=O)NCC(=O)N3CCN(C)CC3)nc2cc1F)c1c(Cl)ccc(F)c1Cl (stereo not shown) [Example 129, 1-{6-[1-(2,6-dichloro-3-fluorophenyl)ethoxy]-5-fluoro-1,3-benzothiazol-2-yl}-3-[2-(4-methylpiperazin-1-yl)-2-oxoethyl]urea]	< 500 nM	235 to 238 °C
